Laboratory results from patent US20200239530A1, “COMPOUNDS AND METHODS OF MODULATING PROTEIN DEGRADATION” (Vividion Therapeutics, Inc., priority 2017, published 2020).
Where two headings read alike, the source gives them in different places. Values belong to the molecule of their own block, whether it stands above or below them.

Tests used:
Assay in all cases: Cysteine liganding, probe competition
Assay type in all cases: binding
UniProt Q8IY92 = biological target: T1, UniProt Q8IY92 (Homo sapiens, UniProt Q8IY92)
T1 construct: 200 μL of lysate containing 5 mg/ml proteome was treated with 2 μL of 100× compound stock; endogenous in cells
Source text: (§1) The following 96-well sample prep protocol was used for sample preparation.

UniProt Q969K3 = biological target: T2, UniProt Q969K3 (Homo sapiens, UniProt Q969K3)
T2 construct: 200 μL of lysate containing 5 mg/ml proteome was treated with 2 μL of 100× compound stock; endogenous in cells
Source text: as §1

UniProt Q6VVB1 = biological target: T3, UniProt Q6VVB1 (Homo sapiens, UniProt Q6VVB1)
T3 construct: Cells were resuspended in cold PBS on ice and sonicated with a probe sonicator to achieve lysis; endogenous in cells
Source text: as §1

UniProt P63208 = biological target: T4, UniProt P63208 (Homo sapiens, UniProt P63208); conditions: for percent_inhibition: 100 uM; for inhibition at 100 µM: read-out: percent_inhibition
T4 construct: 200 μL of lysate containing 5 mg/ml proteome was treated with 2 μL of 100× compound stock; endogenous in cells
Source text: as §1

UniProt Q9BSL1 = biological target: T5, UniProt Q9BSL1 (Homo sapiens, UniProt Q9BSL1)
T5 construct: 200 μL of lysate containing 5 mg/ml proteome was treated with 2 μL of 100× compound stock; endogenous in cells
T5 sequence (Q9BSL1 1-405): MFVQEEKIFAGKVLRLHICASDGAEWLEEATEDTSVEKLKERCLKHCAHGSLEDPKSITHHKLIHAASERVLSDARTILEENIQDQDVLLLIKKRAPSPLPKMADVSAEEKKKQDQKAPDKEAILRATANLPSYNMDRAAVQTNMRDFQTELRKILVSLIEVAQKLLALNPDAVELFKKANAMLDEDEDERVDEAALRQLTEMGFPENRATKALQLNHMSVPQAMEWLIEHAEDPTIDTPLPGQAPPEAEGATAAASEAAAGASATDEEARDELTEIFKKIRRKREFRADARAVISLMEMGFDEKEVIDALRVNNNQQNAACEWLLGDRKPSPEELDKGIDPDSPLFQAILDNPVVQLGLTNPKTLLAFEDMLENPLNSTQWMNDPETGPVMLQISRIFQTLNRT
Source text: as §1

UniProt O43255 = biological target: T6, UniProt O43255 (Homo sapiens, UniProt O43255)
T6 construct: 200 μL of lysate containing 5 mg/ml proteome was treated with 2 μL of 100× compound stock; endogenous in cells
T6 sequence (O43255 1-324): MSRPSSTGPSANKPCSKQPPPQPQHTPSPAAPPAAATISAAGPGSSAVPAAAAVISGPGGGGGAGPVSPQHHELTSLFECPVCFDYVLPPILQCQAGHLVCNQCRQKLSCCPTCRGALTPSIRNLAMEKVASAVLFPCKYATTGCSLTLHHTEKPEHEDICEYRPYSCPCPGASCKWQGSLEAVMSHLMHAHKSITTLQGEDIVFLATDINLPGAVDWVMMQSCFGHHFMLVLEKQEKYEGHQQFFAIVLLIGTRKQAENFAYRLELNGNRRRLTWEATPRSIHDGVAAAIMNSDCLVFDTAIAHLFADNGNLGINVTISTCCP
Source text: as §1

UniProt Q9NPC7 = biological target: T7, UniProt Q9NPC7 (Homo sapiens, UniProt Q9NPC7)
T7 construct: Cells were resuspended in cold PBS on ice and sonicated with a probe sonicator to achieve lysis; endogenous in cells
T7 sequence (Q9NPC7 1-610): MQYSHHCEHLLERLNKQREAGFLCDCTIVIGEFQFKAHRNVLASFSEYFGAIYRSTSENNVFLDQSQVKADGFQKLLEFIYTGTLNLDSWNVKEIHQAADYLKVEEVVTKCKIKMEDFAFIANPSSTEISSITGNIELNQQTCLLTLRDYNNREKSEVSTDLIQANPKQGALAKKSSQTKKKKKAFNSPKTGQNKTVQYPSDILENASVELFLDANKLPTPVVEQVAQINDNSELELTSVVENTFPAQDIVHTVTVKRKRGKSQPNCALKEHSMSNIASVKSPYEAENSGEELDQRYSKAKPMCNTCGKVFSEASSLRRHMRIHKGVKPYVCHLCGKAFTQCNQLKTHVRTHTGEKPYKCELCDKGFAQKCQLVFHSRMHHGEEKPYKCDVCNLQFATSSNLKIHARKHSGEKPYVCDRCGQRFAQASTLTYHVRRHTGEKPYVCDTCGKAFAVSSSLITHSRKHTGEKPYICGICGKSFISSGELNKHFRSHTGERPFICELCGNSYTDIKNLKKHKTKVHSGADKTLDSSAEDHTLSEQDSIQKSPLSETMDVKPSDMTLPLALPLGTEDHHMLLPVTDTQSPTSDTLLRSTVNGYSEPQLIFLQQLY
Source text: as §1

UniProt Q7Z6J0 = biological target: T8, UniProt Q7Z6J0 (Homo sapiens, UniProt Q7Z6J0); conditions: for inhibition at 100 µM: read-out: percent_inhibition
T8 construct: 200 μL of lysate containing 5 mg/ml proteome was treated with 2 μL of 100× compound stock; endogenous in cells
T8 sequence (Q7Z6J0 1-888): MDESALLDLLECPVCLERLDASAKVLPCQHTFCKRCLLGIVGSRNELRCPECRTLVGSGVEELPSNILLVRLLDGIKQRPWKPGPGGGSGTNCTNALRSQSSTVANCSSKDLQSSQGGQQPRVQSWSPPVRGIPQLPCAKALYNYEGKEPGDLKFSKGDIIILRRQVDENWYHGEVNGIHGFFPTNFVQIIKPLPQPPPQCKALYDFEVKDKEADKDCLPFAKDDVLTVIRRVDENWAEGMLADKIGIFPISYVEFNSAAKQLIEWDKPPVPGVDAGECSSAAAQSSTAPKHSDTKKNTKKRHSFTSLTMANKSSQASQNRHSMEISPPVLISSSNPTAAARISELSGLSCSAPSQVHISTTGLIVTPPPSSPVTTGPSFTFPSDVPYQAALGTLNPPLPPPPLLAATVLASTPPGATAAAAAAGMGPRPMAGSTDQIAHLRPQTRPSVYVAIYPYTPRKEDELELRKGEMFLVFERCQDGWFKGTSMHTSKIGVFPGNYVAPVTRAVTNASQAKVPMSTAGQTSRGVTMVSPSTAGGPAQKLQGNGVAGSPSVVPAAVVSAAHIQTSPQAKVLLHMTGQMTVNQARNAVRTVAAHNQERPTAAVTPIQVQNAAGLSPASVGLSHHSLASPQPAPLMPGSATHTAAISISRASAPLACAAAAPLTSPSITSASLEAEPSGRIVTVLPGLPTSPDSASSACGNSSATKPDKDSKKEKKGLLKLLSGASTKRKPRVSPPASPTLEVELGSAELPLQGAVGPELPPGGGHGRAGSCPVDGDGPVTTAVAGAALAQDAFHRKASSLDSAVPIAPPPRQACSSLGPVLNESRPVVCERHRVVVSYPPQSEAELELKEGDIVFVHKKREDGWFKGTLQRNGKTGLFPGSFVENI
Source text: as §1

UniProt O14543 = biological target: T9, UniProt O14543 (Homo sapiens, UniProt O14543)
T9 construct: 200 μL of lysate containing 5 mg/ml proteome was treated with 2 μL of 100× compound stock; endogenous in cells
Source text: as §1

UniProt Q9NX47 = biological target: T10, UniProt Q9NX47 (Homo sapiens, UniProt Q9NX47)
T10 construct: Cells were resuspended in cold PBS on ice and sonicated with a probe sonicator to achieve lysis; endogenous in cells
Source text: as §1

T4 sequence (P63208 whole entry, change not shown): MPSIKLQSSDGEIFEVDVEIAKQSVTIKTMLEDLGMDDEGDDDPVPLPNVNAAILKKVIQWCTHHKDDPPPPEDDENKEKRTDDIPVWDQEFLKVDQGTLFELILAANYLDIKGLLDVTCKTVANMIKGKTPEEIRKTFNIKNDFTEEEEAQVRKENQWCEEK
T3 sequence (Q6VVB1 whole entry, change not shown): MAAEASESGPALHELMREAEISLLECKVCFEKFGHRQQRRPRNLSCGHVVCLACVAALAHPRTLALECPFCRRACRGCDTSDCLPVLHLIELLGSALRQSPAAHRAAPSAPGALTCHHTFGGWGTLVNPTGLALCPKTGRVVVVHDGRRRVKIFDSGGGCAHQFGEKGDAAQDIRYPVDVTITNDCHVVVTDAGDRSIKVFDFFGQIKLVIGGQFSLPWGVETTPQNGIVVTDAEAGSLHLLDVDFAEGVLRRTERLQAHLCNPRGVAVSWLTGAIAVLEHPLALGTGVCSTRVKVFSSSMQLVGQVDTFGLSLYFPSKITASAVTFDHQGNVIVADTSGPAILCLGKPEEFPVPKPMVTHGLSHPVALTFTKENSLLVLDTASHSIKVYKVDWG
T2 sequence (Q969K3 whole entry, change not shown): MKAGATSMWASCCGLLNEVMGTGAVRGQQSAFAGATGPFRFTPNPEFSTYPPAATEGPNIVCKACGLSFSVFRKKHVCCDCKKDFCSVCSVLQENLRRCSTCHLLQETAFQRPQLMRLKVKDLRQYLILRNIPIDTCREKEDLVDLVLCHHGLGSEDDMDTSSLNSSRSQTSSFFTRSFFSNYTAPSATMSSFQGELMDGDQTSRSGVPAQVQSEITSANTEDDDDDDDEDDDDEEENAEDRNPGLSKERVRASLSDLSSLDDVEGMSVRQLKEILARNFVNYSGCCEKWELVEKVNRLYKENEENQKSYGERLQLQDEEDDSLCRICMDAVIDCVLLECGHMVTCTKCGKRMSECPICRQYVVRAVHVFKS
T9 sequence (O14543 whole entry, change not shown): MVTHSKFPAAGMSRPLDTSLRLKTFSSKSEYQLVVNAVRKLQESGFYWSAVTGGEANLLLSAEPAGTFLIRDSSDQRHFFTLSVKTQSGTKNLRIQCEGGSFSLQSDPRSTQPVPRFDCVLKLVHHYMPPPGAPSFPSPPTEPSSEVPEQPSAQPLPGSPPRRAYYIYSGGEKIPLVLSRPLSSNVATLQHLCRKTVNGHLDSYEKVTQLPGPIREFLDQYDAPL
T10 sequence (Q9NX47 whole entry, change not shown): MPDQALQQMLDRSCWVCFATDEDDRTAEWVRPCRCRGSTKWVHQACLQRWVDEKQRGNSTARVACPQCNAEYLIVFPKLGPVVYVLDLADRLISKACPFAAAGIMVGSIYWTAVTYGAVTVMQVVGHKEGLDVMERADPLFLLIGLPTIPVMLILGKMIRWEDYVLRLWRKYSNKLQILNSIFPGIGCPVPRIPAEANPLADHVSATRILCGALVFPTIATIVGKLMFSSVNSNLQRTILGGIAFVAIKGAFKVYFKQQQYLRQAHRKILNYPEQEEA
T1 sequence (Q8IY92 whole entry, change not shown): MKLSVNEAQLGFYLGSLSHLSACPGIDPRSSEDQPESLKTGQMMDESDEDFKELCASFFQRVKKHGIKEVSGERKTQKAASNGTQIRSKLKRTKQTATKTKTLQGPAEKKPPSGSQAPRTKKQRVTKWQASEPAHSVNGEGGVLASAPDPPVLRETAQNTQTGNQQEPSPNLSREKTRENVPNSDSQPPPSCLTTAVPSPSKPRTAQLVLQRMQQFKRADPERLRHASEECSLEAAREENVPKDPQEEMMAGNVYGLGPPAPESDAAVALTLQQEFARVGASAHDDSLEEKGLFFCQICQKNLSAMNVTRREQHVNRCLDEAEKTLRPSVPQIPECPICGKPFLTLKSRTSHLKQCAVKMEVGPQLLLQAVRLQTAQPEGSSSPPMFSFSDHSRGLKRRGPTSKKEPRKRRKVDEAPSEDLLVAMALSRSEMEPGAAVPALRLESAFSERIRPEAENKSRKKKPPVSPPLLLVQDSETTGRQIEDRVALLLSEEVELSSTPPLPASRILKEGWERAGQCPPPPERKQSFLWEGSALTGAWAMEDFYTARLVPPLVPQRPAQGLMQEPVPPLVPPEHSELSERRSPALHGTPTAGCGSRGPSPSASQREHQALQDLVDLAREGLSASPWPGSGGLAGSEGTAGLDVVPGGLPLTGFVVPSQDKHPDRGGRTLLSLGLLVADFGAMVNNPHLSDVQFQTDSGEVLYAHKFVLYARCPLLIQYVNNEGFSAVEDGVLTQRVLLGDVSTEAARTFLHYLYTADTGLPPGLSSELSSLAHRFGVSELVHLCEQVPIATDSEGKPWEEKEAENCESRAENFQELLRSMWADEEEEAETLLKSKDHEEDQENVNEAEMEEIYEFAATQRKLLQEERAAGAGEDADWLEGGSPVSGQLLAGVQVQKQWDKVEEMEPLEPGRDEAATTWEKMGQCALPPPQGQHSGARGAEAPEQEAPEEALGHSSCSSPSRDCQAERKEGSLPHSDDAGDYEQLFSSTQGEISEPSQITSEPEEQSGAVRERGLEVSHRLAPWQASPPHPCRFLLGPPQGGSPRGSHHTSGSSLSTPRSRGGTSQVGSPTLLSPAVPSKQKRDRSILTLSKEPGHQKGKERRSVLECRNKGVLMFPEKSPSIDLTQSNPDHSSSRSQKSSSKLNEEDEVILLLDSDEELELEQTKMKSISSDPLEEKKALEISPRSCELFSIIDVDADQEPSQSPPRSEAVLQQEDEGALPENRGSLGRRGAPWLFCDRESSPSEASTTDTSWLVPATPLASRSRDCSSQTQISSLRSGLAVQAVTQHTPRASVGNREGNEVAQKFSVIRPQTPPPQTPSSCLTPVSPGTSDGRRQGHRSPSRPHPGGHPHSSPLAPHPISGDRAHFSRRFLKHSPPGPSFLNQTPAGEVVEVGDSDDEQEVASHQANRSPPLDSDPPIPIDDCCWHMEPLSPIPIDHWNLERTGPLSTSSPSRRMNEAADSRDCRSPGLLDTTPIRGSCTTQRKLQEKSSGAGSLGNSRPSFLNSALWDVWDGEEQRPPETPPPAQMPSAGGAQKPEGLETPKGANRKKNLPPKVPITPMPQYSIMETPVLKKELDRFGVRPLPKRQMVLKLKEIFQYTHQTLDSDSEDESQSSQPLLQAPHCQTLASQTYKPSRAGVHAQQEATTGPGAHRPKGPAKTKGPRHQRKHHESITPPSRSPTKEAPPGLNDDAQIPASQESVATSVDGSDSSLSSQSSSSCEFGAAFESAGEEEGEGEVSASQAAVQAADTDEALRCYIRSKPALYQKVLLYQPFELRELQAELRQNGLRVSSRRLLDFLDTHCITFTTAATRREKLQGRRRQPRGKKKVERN

- inhibition at 100 µM (UniProt Q8IY92; read-out: percent_inhibition): 10%
- inhibition at 100 µM (UniProt Q969K3; read-out: percent_inhibition): 8%
- inhibition at 500 µM (UniProt Q6VVB1; read-out: KB05_500 uM_percent_inhibition): 15%
- percent_inhibition (UniProt P63208): 14%
- inhibition at 100 µM (UniProt P63208): 15%
- inhibition at 100 µM (UniProt Q9BSL1; 100 uM, read-out: KB05_100 uM_percent_inhibition): 36%
- KB05_500 uM_percent_inhibition (UniProt Q9BSL1; 500 uM): 57%
- inhibition at 500 µM (UniProt Q9BSL1; 500 uM, read-out: KB05_500 uM_percent_inhibition): 48%
- inhibition at 500 µM (UniProt O43255; 500 uM, read-out: percent_inhibition): 28%
- inhibition at 100 µM (UniProt Q9NPC7; 100 uM, read-out: percent inhibition): 1%
- inhibition at 500 µM (UniProt Q9NPC7; 500 uM, read-out: percent inhibition): 58%
- percent_inhibition (UniProt Q7Z6J0; 100 uM): 4%
- inhibition at 100 µM (UniProt Q7Z6J0): 3%
Compound: C=CC(=O)N(c1ccccc1)c1ccc(Br)cc1 [KB05]

Compound: O=C(CCl)Nc1cc(C(F)(F)F)cc(C(F)(F)F)c1 [KBO3]
- percent_inhibition (UniProt O14543; 100 uM): 91%
- percent_inhibition (UniProt Q8IY92; 100 uM): 8%
- percent_inhibition (UniProt Q969K3; 100 uM): 18%
- KB03_100 uM_percent_inhibition (UniProt Q9BSL1; 100 uM): 36%
- percent inhibition (UniProt Q9NPC7; 100 uM): 30%
- percent inhibition (UniProt Q9NX47; 100 uM): 30%

Compound: COc1ccc2c(c1)CCCN2C(=O)CCl [KB02]
- inhibition at 100 µM (UniProt O14543; read-out: percent_inhibition): 40%
- inhibition at 500 µM (UniProt Q6VVB1; read-out: KB02_500 uM_percent_inhibition): 9%
- percent_inhibition (UniProt P63208): 18%
- inhibition at 100 µM (UniProt P63208): 13%
- percent_inhibition (UniProt O43255; 100 uM): 20%
- inhibition at 100 µM (UniProt O43255; 100 uM, read-out: percent_inhibition): 31%
- inhibition at 100 µM (UniProt Q7Z6J0): 42%
- inhibition at 100 µM (UniProt Q9NX47; read-out: percent inhibition): 7%
